# Test results taken from patent EP1043318A1 (priority 1997, dated 1999).
# Tests used:
# [1] = test system: herpes simplex type 1 (VPG-1/Leningrad/248/88); test: Antiviral activity on herpes virus, cytopathic effect in Vero cell culture; format: cell-based, herpes simplex virus; conditions: unchanged Vero cells after 36 hours
# C. trachomatis D323 = test: Activity on Chlamydia trachomatis in infected cell culture; format: cell-based; conditions: for No. of unchanged cells: 100 viewing fields, cell control 9.000, infected cells 6.000
# M. tuberculosis 61 (S) = test: Activity on pathogenic mycobacteria, growth on Lewenstein-Jensen medium (sensitive strain); format: cell-based; conditions: strain sensitive to control preparations; concentration of the preparation 50.0 g/l (table title); incubated 30 days
# [2] = test system: primary culture of humans lymphocytes; test: Interferon-inducing activity in primary lymphocyte culture (immunoenzyme determination of INF); format: cell-based, human
# Acute toxicity in mice = test: Acute toxicity in mice; parameters: species or system non-linebred white mice; conditions: mouse, in vivo, iv, by mouth or intravenously, 14 days observation
# Description: Acute toxicity was determined on non-linebred white mice weighing 18-20 g. The claimed compounds were prepared in a range of concentrations: 1500, 700, 500, 100, 20 and 5 µg/kg. Five animals were used to study each specific concentration of a compound. The preparation was administered once a day by mouth of intravenously. The observation period was 14 days On days 1, 8 and 15 the animals in every group were weighed. For a control we used animals who received the emulsion without the test compounds. All animals, both those that died in the course of the experiment and those that survived to the end of the experiment, were opened to allow macroscopic examination of internal organs. In the course of the experiment no loss of weight was observed or any change in behavior or external appearance, nor was there any loss of life. Based on the results of the macroscopic examination of internal organs of the animals in the test and the control groups, no pathological findings were made, [text missing]
Molecule,number of cells in 100 fields ([1]; 10 mg/l),number of cells in 100 fields ([1]; 50 mg/l),number of cells in 100 fields ([1]; 100 mg/l),M. tuberculosis 61S growth (M. tuberculosis 61 (S)),Concentration of INF in induction mixture after 24 hrs. of incubation ([2]; 1 mg/l of the preparation),Concentration of INF in induction mixture after 24 hrs. of incubation ([2]; 10 mg/l of the preparation),Concentration of INF in induction mixture after 24 hrs. of incubation ([2]; 100 mg/l of the preparation),also measured
"2-hydroxyethylammonium salt of 5,5'-(p-nitrobenzylidene)bisbarbituric acid [III]",2000,3000,5500,,,,,percent protection of the cells against infection (C. trachomatis D323; 10 mg/l): 60%; No. of unchanged cells (C. trachomatis D323; 10 mg/l): 7800; percent protection of the cells against infection (C. trachomatis D323; 100 mg/l): 65%; No. of unchanged cells (C. trachomatis D323; 100 mg/l): 7950
[H]/N=C(/N)N[C@H]1[C@H](O)[C@@H](O)[C@H](O[C@@H]2O[C@@H](C)[C@](O)(C=O)[C@H]2O[C@@H]2O[C@@H](CO)[C@H](O)[C@@H](O)[C@@H]2NC)[C@@H](N/C(N)=N\[H])[C@@H]1O [Streptomycin],,,,complete suppression of growth,,,,
"Nc1nc2c(ncn2COCCO)c(=O)[nH]1 [Acyclovir, reference compound]",8000,,,,,,,
"pyridine salt of 5,5'-(p-bromobenzylidene)bisbarbituric acid [VIII]",10000,2500,5000,,"0,9 ± 0,2 IU/3·10^4 lymph/ml","1,2 ± 0,4 IU/3·10^4 lymph/ml","3,8 ± 0,4 IU/3·10^4 lymph/ml",
"O=C1NC(=S)NC(=O)C1C(c1ccc([N+](=O)[O-])cc1)C1C(=O)NC(=S)NC1=O [X, 5,5'-(p-nitrobenzylidene)bis (2-thiobarbituric) acid]",10000,10000,3000,complete suppression of growth,4.0 ± 0.5 IU/3·10^4 lymph/ml,23 ± 1.0 IU/3·10^4 lymph/ml,47 ± 0.8 IU/3·10^4 lymph/ml,LD50 at 336 h (Acute toxicity in mice): 1000 mg/kg
NNC(=O)c1ccncc1 [Isoniazid],,,,complete suppression of growth,,,,
CC[C@@H](CO)NCCN[C@@H](CC)CO [Ethambutol],,,,complete suppression of growth,,,,
O=C1NC(=S)NC(=O)C1C(c1ccc(Cl)cc1)C1C(=O)NC(=S)NC1=O [IX],10000,10000,3000,,"5,6 ± 0,8 IU/3·10^4 lymph/ml","21,0 ± 0,9 IU/3·10^4 lymph/ml","35,2 ± 1,6 IU/3·10^4 lymph/ml",
"pyridine salt of 5,5'-(p-chlorobenzylidene)bis(2-thiobarbituric) acid [IV]",10000,2000,4000,,"1,3 ± 0,5 IU/3·10^4 lymph/ml","3,7 ± 1,0 IU/3·10^4 lymph/ml","23,0 ± 1,7 IU/3·10^4 lymph/ml",
